Assay results: US20230218629A1, “THERAPEUTIC COMPOSITIONS AND METHODS FOR PREVENTION AND TREATMENT OF DIASTOLIC DYSFUNCTION” (AMBETEX PTY LTD, priority 2019, published 2023)

Columns and labels:
Type in all cases: in vivo
Male C57BL6 mice [1] = test: Aβ42 administration study: cardiac function by echocardiography
Description: (§1) After 4 weeks of peptide administration, cardiac function was assessed by echocardiography as follows. Mice were anaesthetised with inhalation of 1.5% isoflurane anaesthesia and echocardiography was performed using the Phillips HD15 diagnostic ultrasound system with a 15 MHz linear-array transducer by an experienced veterinarian. The velocity of blood flow through the mitral valve was analysed using Doppler mode imaging. […] Doppler imaging was also utilised to measure the velocity of blood flow through the aortic valve. The measurements were then used to calculate the ejection time, peak aortic flow and heart rate. M-mode imaging of the left ventricle was used to measure the thickness of the inter-ventricular septum (IVS), left ventricular internal diameter (LVID) and left ventricular posterior wall (LVPW) in both diastole (d) and end-systole (s) as well as systolic measures such as ejection fraction and fractional shortening. An estimation of LV mass was calculated from the m-mode imaging by using the formula (1.05[LVIDd+LVPWd+IVSd]^3−[LVIDd]^3) by Troy et al. (1972). Mice were humanely killed by cervical dislocation 1 week later. Blood was obtained immediately following by cardiac puncture and the heart, and other tissues were immediately removed. Hearts were washed in ice cold PBS and weighed prior to being snap frozen in liquid nitrogen.

Male C57BL6 mice [2] = test: Aβ42 administration study: GTT with glucose tracers, cardiac metabolism
Description: At 12 weeks of age, mice were grouped according to body mass and composition, determined by EchoMRI. […] An i.p. glucose tolerance test (GTT) was performed on the final treatment day following an overnight fast. Mice were administered 2 g/kg lean mass of glucose including radioactive glucose tracers, prepared as follows. 100 μl of 1 μCi/μl glucose analogue, [^3H]-2-deoxyglucose (2-DOG), and 500 μl of 200 μCi/mL U-^14C glucose were evaporated to dryness before redissolving the radioactive tracers in 1 mL of 50% glucose. This produced a 50% glucose solution containing 100 μCi/mL [^3H]-2-DOG and 100 μCi/mL U-^14C glucose. The tail tip of each mouse was cut off and the blood glucose concentration of a blood sample was measured using an AccuCheck II glucometer (Roche). The GTT was initiated via intraperitoneal injection of the radiolabelled glucose solution (2 g/kg body weight, 10 uCi/animal) into the overnight-fasted mice. Further blood samples were taken at 15, 30, 45, 60 and 90 minutes after the injection for the measurement of blood glucose. Blood samples (30 μl) were also taken from the tail tip at each time point and diluted in 100 μl of saline. These samples were then centrifuged and the supernatant collected. 50 μl of the supernatant was diluted in 500 μl of distilled water and then suspended in 4 mL of Ultima Gold XR scintillation fluid (Packard Bioscience). Blood radioactivity was determined at each time point by performing liquid scintillation counting on each solution using the Beckman scintillation counter (LS6000 SC). At the conclusion of the GTT, mice were killed via cervical dislocation. Blood was obtained immediately following by cardiac puncture and the heart, and other tissues were immediately removed. Hearts were washed in ice cold PBS and weighed prior to being snap frozen in liquid nitrogen. The heart (30 mg), epididymal fat pad (30 mg and quadriceps skeletal muscle (30 mg) were homogenised in 1.5 ml of distilled water. The homogenate was centrifuged at 3000 rpm for 10 min at 4° C. 400 μl of the supernatant was diluted into 1.6 mL of distilled water and then suspended in 14 mL of Ultima Gold XR scintillation fluid (Packard Bioscience). The radioactivity of each sample (from both [3H]-2-DOG6P and [^3H]-2-DOG) was determined by liquid scintillation counting using the Beckman scintillation counter (LS6000 SC). The ^3H radioactivity was used to measure glucose uptake into each tissue.
To determine the incorporation of U-^14C glucose into triglyceride and the total triglyceride content in the heart, an extraction of triglyceride was carried out using a chloroform/methanol mixture. Samples of heart (30 mg) were hand-homogenised in 2 mL of chloroform/methanol (2:1) and the homogeniser rinsed in a further 2 mL of chloroform/methanol (2:1), and the washings being added to the original extract in 10 mL tubes. The tubes were tightly capped and mixed on a rotator overnight to maximise extraction of the triglycerides. 2 ml of 0.6% saline was then added, to facilitate the separation of the organic and aqueous phases, after which the tubes were mixed thoroughly and then centrifuged at 2000 rpm for 10 minutes. […] The amount of U-^14C glucose clearance into the lipid fraction was measured by suspending 100 μl of the triglyceride solution in 5 mL of Ultima Gold XR scintillation fluid (Packard Bioscience), followed by scintillation counting using the Beckman scintillation counter (LS6000 SC).

obese mice (HFD) = test: Verubecestat-High fat diet (HFD) treatment study
Description: Verubecestat-High fat diet (HFD) treatment study: At 12 weeks of age, mice (n=30) were placed on a HFD with 43% of calories from fat (23.5% by weight; SF04-001 High Fat Rodent Diet Based on D12451, Specialty Feeds, Glen Forrest, Wash.). After 13 weeks of the diet period, echocardiography was performed on all mice to obtain pre-drug treatment measures of cardiac function. Mice were allocated to treatment groups so that measures of cardiac function and morphology were matched as best as possible. Verubecestat (MedChemExpress) was resuspended in 100% DMSO before being diluted in a hydroxypropyl cellulose solution to give a final solution containing 6.25 mg/mL Verubecestat in 10% hydroxypropyl cellulose and 5% DMSO. A vehicle solution containing 10% hydroxypropyl cellulose and 5% DMSO was also made. Aliquots of both drug and vehicle were stored at −80° C. until required. The HFD/Verubecestat group was administered 25 mg/kg of Verubecestat per day by oral gavage, while the HFD/control group received an equivalent volume of vehicle. Echocardiography was then performed following 4 weeks of the treatment period to obtain post-drug treatment measures of cardiac function. Following 5 weeks of the drug administration, mice were humanely killed via cervical dislocation and blood was immediately obtained via cardiac puncture and stored in a heparinised tube. The heart, epididymal fat pad, mesenteric fat pad, liver, quadricep, hind limb and brain were then immediately dissected. The heart was blotted prior to being weighed and all tissues were snap frozen in liquid nitrogen and stored at −80° C. Plasma Aβ species were measured using high sensitivity ELISA kits (Wako Diagnostics) and plasma that was diluted 1:10 with assay buffer.

Male C57BL6 mice [3] = test: Aβ40 administration study
Description: as §1, with “Aβ40 administration study: Lyophilised recombinant Aβ40 (Millipore) and scrambled control peptide (ScrAβ40; Millipore) were resuspended in 1% NH4OH and aliquoted at 200 ng/ml in H2O and stored at −80° C. for no longer than 4 weeks. Male C57BL6 mice were obtained from the Animal Resource Centre (Perth, Wash.) at 4 weeks of age and housed with 4 mice per cage on a 12 hr light/dark cycle at a temperature of 22° C. and a constant humidity with a normal rodent diet. At 12 weeks of age, mice were grouped according to body mass and composition, determined by EchoMRI. Mice were then administered 1 μg of recombinant Aβ40 or ScrAβ40 (n=12/group per cohort) by i.p. injection once/day for 5 wks. After” for “After”, “nitrogen. Plasma Aβ40 was measured using a high sensitivity ELISA kit (Wako Diagnostics) and plasma that was diluted 1:10 with assay buffer.” for “nitrogen.”

## Aβ42: Lyophilised recombinant Aβ42 (Millipore), amyloid beta peptide of 42 amino acids
Male C57BL6 mice [1]; FIG. 2B
  internal dimensions of the left ventricle (LVIDd): no effect
Male C57BL6 mice [1]; FIG. 2D
  deceleration time: increased
Male C57BL6 mice [1]; FIG. 2F
  fractional shortening: reduced
Male C57BL6 mice [1]; FIG. 2G
  ejection fraction: reduced
Male C57BL6 mice [1]; between groups, FIG. 2E
  E normalised by isovolumetric relaxation time (IVRT): no significant difference
Male C57BL6 mice [1]; five weeks Aβ42 vs ScrAβ42, FIG. 2A
  gross heart weight: no effect
Male C57BL6 mice [2]; 1 μg/day i.p., five weeks, FIG. 1A
  increase in plasma Aβ42 compared with administration of ScrAβ42: approximately 3 fold
Male C57BL6 mice [2]; FIG. 1E
  cardiac gene expression (inflammation, endoplasmic reticulum stress): gene expression changes indicative of cardiac stress responses
Male C57BL6 mice [2]; after five weeks of peptide administration, vs ScrAβ42
  whole body glucose tolerance or plasma insulin throughout the GTT: no difference
Male C57BL6 mice [2]; heart, FIG. 1C
  glucose incorporation into TAG (14C-glucose labelling): greater
Male C57BL6 mice [2]; heart, FIG. 1D
  total TAG: increased

## CN1C(N)=N[C@](C)(c2cc(NC(=O)c3ccc(F)cn3)ccc2F)CS1(=O)=O [Verubecestat, verubecestat]
Obese mice (HFD); 25 mg/kg per day oral gavage, obese mice, FIG. 7A
  plasma Aβ40: decreased
Obese mice (HFD); 25 mg/kg per day oral gavage, obese mice, FIG. 7B
  plasma Aβ42: decreased
Obese mice (HFD); 4 weeks of daily treatment, 25 mg/kg oral, vehicle group 122%, FIG. 7C
  DT after treatment, of baseline levels: 107%

## Aβ40: Lyophilised recombinant Aβ40 (Millipore), amyloid beta peptide
Male C57BL6 mice [3]; 1 μg/day i.p., 5 weeks, vs ScrAβ40, FIG. 6A
  plasma Aβ40: significantly increased
Male C57BL6 mice [3]; FIG. 6B
  E:A ratio: did not have any effect
Male C57BL6 mice [3]; FIG. 6C
  DT: did not have any effect
Male C57BL6 mice [3]; FIG. 6E
  ejection fraction: nor any effect
Male C57BL6 mice [3]; FIG. 6F
  IVSd: no effect
Male C57BL6 mice [3]; FIG. 6G
  LVIDd: no effect
Male C57BL6 mice [3]; FIG. 6H
  LV mass: no effect
